Assay results reported in ChEMBL document CHEMBL1141113, “High affinity electrophilic and photoactivatable covalent endocannabinoid probes for the CB1 receptor” (J Med Chem, 2005).

Key:
Cannabinoid receptor 1 = Cannabinoid receptor 1 (Rattus norvegicus, UniProt P20272); assay: Binding affinity towards rat brain cannabinoid receptor 1 in the presence of PMSF upon incubation for 15 min at 4 degree C in pH 7.4 using [3H]CP-55940
Cannabinoid receptor 2 = Cannabinoid receptor 2 (Mus musculus, UniProt P47936); assay: Binding affinity towards mouse spleen cannabinoid receptor 2 in the presence of PMSF upon incubation for 15 min at 4 degree C in pH 7.4 using [3H]CP-55940; type: tissue-based
Cannabinoid receptor 2, sequence (P47936 whole entry): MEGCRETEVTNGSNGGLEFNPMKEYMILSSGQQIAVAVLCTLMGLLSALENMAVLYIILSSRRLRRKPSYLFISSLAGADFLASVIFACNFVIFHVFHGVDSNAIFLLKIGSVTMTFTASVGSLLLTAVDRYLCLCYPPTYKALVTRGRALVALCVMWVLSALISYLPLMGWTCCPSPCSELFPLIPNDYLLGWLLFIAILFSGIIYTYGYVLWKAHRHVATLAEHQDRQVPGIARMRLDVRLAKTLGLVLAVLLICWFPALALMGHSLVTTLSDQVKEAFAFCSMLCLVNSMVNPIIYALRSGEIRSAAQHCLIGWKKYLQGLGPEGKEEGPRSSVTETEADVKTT

Cannabinoid receptor 1, sequence (P20272 whole entry): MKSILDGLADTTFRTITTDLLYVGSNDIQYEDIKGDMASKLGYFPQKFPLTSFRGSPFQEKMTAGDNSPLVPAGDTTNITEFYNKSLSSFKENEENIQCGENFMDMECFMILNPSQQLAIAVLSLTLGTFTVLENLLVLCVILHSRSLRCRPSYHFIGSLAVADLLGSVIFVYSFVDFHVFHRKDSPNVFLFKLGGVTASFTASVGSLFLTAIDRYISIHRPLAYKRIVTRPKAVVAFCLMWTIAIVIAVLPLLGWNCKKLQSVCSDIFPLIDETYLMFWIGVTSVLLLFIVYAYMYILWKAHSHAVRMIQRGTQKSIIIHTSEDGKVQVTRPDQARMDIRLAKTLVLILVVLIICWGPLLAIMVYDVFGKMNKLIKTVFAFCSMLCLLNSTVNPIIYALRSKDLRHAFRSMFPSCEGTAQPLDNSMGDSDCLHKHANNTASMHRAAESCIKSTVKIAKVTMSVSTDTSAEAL

SMILES | Ki (Cannabinoid receptor 1) | Ki (Cannabinoid receptor 2)
O=C(CCC/C=C\C/C=C\C/C=C\C/C=C\CCCCCN=C=S)NC1CC1 | 1.3 nM | 48.5 nM
CCCCC/C=C\C/C=C\C/C=C\C/C=C\CCCC(=O)NC1CC1 | 2.7 nM | 157 nM
